Data from patent publication US20260232682A1, “GSPT1 DEGRADER COMPOUNDS” (Captor Therapeutics S.A., priority 2023, published 2026).

How the values were obtained:
[1] = target: CRBN/DDB1 protein complex (Homo sapiens, UniProt Q96SW2); experiment: CRBN displacement TR-FRET assay; details: Thalidomide-Red tracer, 6×His-CRBN/DDB1; read-out: CRBN binding Ki
How it was run: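 Test compound at various concentrations competed with 6.8 nM Thalidomide-Red tracer for 5 nM 6×His-CRBN/DDB1, detected with 0.5 nM anti-His-Eu cryptate in buffer with 1 mM DTT and 1% DMSO. Incubation ran 180 min at room temperature with a time-resolved fluorescence read-out. IC50 values were converted to Ki by Cheng–Prusoff using tracer Kd and protein and tracer concentrations.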

[2] = target: T1, [IKZF1 ZF2]-[compound]-[CRBN/DDB1] ternary complex (Homo sapiens, UniProt Q13422+Q96SW2); experiment: AlphaLISA assay for off-target recruitment detection, IKZF1 ZF2; format: binding; details: 1 μM compound; normalized to Lenalidomide; read-out: Normalized ternary complex response, IKZF1 ZF2
T1 construct: IKZF1 ZF2
How it was run: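 Neo-substrate with 40 μg/ml donor beads and 200 nM 6×His-CRBN/DDB1 with 40 μg/ml anti-His acceptor beads were each prepared in PBS pH 7.4 with Tween-20 and 1 mM DTT, preincubated 30 min at RT, then mixed. Compounds at 2% DMSO were incubated 30 min at 25 °C, read at 680/615 nm, and normalised between DMSO background and reference glue maximum.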

[3] = target: T2, GSPT1-HiBiT protein in GSPT1-HiBiT HEK293 cells (Homo sapiens, UniProt P15170+Q96SW2); experiment: GSPT1 degradation assay using HiBiT system (Nano-Glo HiBiT lytic assay); format: cell-based; details: 6 hours treatment; for DC50: read-out: HiBiT lytic assay Geomean absolute DC50
T2 construct: endogenous in cells; host or cells: HEK293 (CRISPR/Cas9 knock-in of HiBiT at the GSPT1 locus)
Description: The effect of selected compounds of the invention on GSPT1 protein levels was investigated, using the GSPT1-HiBiT HEK293 cell line and the Nano-Glo HiBiT degradation assay protocol below.
GSPT1-HiBiT HEK293 cells were generated in-house using the HEK293 parental cells (ATCC, cat. no 70016364) and the CRISPR/Cas9 system. HEK293 cells were transformed with pSpCas9-BB-2A-Puro v2.0 plasmid carrying gRNA targeting the C-terminus of GSPT1 and ssODN template containing the HiBiT tag sequence with flanking homology sequences. Neon Transfection System (Thermo Fisher Scientific) was used for electroporation. HEK293 GSPT1-HiBiT cells were cultured with DMEM Glutamax (Gibco) supplemented with 10% heat inactivated FBS (Gibco). After transfection the culture medium was changed to DMEM Glutamax with 10% heat-inactivated FBS and 1% Penicillin-Streptomycin (Biowest) supplemented with Puromycin (2 μg/ml; Invivogen) for clonal selection. In order to isolate single cell clones for further validation and analysis, limiting dilution cloning in 96-well plates was performed. When the single clones reached confluency, HiBiT Lytic Assay (Promega) was performed in order to identify HiBiT positive clones. The clone selected for further studies was verified and validated using genotyping and HiBiT Blotting (Promega).
Cells were maintained in DMEM Glutamax medium, supplemented with 1% penicillin/streptomycin and 10% Fetal Bovine Serum (FBS) at 37° C., 5% CO2. Compounds were stored frozen as 20 mM DMSO stocks.
For the Nano-Glo HiBiT assay, cells were seeded onto 384-well white solid bottom plate at 2×10^3 cells/well in 40 μL using the Agilent BioTek MultiFlo FX Multimode Dispenser and incubated overnight. Following overnight incubation (37° C., 5% CO2) cells were treated with the test compounds and vehicle only (DMSO) control using the Echo 555 Liquid Handler. Twelve data-point compound titration curve with concentrations ranging from 10 μM to 0.03 nM was used. Final DMSO concentration was kept constant at 0.25% v/v across the assay plate. After 6 hours of incubation (37° C., 5% CO2), plates were removed from the incubator and let to equilibrate to RT. Luminescent signal detection was conducted using the Nano-Glo HiBiT Lytic Detection System (Promega, cat. nr N3050). Nano-Glo HiBiT Lytic Reagent was prepared freshly by diluting the LgBiT Protein (1:100 vol/vol) and the Nano-Glo HiBiT Lytic Substrate (1:50 vol/vol) in the relevant volume of the Nano-Glo HiBiT Lytic Buffer. 40 μL of the HiBiT Lytic Reagent was added per well, plates were shaken to facilitate lysis (350 rpm, 5 min, RT) and incubated in the dark for the following 10 min. Luminescence was read using the PHERAstar multimode plate reader (BMG LABTECH). The raw data (the relative luminescence unit values, RLU) were uploaded under the relevant protocol and analysed in CDDVault data management platform. Luminescence (RLU) values were normalized to the controls, and reported absolute DC50 values and Dmax values were calculated in CDDVault using non-linear regression and appropriate equations.

T1 sequence (Q13422 145-167 limits assumed): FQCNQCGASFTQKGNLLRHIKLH
T1 sequence (Q96SW2 whole entry): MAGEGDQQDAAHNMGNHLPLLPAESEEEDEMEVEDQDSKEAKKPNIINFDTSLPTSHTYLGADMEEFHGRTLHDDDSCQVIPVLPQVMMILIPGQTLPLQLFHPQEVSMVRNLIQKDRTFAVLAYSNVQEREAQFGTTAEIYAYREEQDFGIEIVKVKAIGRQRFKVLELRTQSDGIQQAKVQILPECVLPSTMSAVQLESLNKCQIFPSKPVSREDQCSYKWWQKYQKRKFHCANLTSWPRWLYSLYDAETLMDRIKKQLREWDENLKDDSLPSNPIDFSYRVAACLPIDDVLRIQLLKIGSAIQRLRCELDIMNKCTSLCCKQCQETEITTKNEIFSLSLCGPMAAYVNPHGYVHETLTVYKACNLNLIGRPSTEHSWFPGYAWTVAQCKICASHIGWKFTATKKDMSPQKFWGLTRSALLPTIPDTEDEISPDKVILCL
T1 sequence (Q16531 whole entry partner): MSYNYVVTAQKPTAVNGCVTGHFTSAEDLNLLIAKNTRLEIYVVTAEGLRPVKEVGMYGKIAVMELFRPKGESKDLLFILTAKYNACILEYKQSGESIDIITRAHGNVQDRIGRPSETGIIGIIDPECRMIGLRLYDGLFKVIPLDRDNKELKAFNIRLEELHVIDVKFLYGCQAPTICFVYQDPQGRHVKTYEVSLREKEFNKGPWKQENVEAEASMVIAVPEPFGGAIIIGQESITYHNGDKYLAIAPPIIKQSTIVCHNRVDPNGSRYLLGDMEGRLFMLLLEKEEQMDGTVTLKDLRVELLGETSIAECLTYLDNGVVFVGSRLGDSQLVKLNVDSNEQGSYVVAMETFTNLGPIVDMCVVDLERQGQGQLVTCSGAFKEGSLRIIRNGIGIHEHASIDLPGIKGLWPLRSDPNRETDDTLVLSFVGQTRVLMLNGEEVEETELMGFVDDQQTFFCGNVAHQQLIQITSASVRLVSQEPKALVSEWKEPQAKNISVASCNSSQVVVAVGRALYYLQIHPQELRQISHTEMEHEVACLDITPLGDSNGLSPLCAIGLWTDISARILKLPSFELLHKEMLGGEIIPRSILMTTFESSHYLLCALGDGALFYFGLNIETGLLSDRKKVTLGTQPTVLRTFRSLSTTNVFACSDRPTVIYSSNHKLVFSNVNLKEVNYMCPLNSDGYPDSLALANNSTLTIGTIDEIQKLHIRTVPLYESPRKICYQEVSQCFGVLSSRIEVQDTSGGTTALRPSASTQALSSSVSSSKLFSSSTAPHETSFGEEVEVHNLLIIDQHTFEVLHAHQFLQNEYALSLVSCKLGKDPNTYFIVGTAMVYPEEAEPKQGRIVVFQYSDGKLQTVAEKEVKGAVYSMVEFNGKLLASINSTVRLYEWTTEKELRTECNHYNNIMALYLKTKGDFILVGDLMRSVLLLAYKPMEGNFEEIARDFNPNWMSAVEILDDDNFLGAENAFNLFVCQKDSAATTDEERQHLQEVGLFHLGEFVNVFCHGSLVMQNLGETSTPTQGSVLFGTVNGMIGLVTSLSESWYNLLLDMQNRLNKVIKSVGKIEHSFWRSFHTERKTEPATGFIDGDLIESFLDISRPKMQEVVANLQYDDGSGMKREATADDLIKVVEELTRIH
T2 sequence (P15170 whole entry): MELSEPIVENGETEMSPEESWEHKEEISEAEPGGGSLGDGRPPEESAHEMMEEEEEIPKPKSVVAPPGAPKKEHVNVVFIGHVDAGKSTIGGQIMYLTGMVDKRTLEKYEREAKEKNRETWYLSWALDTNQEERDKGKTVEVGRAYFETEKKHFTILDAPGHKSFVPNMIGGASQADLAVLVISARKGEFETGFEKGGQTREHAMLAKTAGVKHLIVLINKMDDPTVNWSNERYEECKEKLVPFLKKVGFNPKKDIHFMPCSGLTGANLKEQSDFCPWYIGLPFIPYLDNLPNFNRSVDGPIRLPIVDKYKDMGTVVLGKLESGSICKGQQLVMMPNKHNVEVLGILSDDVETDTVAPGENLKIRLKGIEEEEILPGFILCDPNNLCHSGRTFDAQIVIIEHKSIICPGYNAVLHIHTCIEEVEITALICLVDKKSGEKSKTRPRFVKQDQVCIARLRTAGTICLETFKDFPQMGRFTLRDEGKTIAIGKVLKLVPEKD
T2 sequence (Q96SW2 whole entry): as the sequence (Q96SW2 whole entry) above
T2 sequence (Q16531 whole entry partner): as the sequence (Q16531 whole entry partner) above
Chain of CRBN/DDB1 protein complex (Q96SW2 whole entry, species assumed): as the sequence (Q96SW2 whole entry) above
Chain of CRBN/DDB1 protein complex (Q16531 whole entry partner, species assumed): as the sequence (Q16531 whole entry partner) above

Ki [1] [nM]	activation at 1 µM [2] [%]	Dmax [3] [%]	DC50 [3] [nM]	Structure (SMILES)
500 to 1000	< 10	≥ 75	10 to 50	COc1cc(C)c(Cl)cc1NC(=O)OCc1ccc2cc(C3CCC(=O)NC3=O)c(C)nc2c1 (stereo not shown) [Compound 21, (3-(2,6-dioxopiperidin-3-yl)-2-methylquinolin-7-yl)methyl (5-chloro-2-methoxy-4-methylphenyl)carbamate]
> 1000	< 10	≥ 75	10 to 50	Cc1ccc(NC(=O)OCc2cc(F)c3cc(C4CCC(=O)NC4=O)c(C)nc3c2)cc1Cl (stereo not shown) [Compound 22, (3-(2,6-dioxopiperidin-3-yl)-5-fluoro-2-methylquinolin-7-yl)methyl (3-chloro-4-methylphenyl)carbamate]
< 500	< 10	≥ 75	50 to 100	Cc1ccc(NC(=O)NCc2ccc3cc(N4CCC(=O)NC4=O)c(C)nc3c2)cc1Cl [Compound 27, 1-(3-chloro-4-methylphenyl)-3-((3-(2,4-dioxotetrahydropyrimidin-1(2H)-yl)-2-methylquinolin-7-yl)methyl)urea]
500 to 1000	< 10	≥ 75	10 to 50	Cc1ccc(NC(=O)OCc2ccc3cc(N4CCC(=O)NC4=O)c(C)nc3c2)cc1Cl [Compound 28, (3-(2,4-dioxotetrahydropyrimidin-1(2H)-yl)-2-methylquinolin-7-yl)methyl (3-chloro-4-methylphenyl)carbamate]
< 500	10 to 25	≥ 75	10 to 50	Cc1ccc(NC(=O)OCc2ccc3nc(C)c(N4CCC(=O)NC4=O)cc3c2)cc1Cl [Compound 29, (3-(2,4-dioxotetrahydropyrimidin-1(2H)-yl)-2-methylquinolin-6-yl)methyl (3-chloro-4-methylphenyl)carbamate]
500 to 1000	< 10	≥ 75	< 10	Cc1nc2cc(COC(=O)Nc3cc(C(C)(C)C)no3)ccc2cc1C1CCC(=O)NC1=O (stereo not shown) [Compound 30, (3-(2,6-dioxopiperidin-3-yl)-2-methylquinolin-7-yl)methyl (3-(tert-butyl)isoxazol-5-yl)carbamate]
500 to 1000	< 10	≥ 75	10 to 50	Cc1ccc(NC(=O)CCc2ccc3cc(C4CCC(=O)NC4=O)c(C)nc3c2)cc1Cl (stereo not shown) [Compound 32, N-(3-chloro-4-methylphenyl)-3-(3-(2,6-dioxopiperidin-3-yl)-2-methylquinolin-7-yl)propanamide]
500 to 1000	< 10	≥ 75	10 to 50	Cc1nc2cc(COC(=O)Nc3csc(-c4ccccc4)c3)ccc2cc1C1CCC(=O)NC1=O (stereo not shown) [Compound 37, (3-(2,6-dioxopiperidin-3-yl)-2-methylquinolin-7-yl)methyl (5-phenylthiophen-3-yl)carbamate]
> 1000	< 10	≥ 75	50 to 100	Cc1ccc(NC(=O)OCc2ccc3cc([C@@H]4CCC(=O)NC4=O)c(C)nc3c2)cc1Cl [Compound 38, (3-(2,6-dioxopiperidin-3-yl)-2-methylquinolin-7-yl)methyl (3-chloro-4-methylphenyl)carbamate]
500 to 1000	< 10	≥ 75	< 10	Cc1ccc(NC(=O)OCc2ccc3cc([C@H]4CCC(=O)NC4=O)c(C)nc3c2)cc1Cl [Compound 39, (3-(2,6-dioxopiperidin-3-yl)-2-methylquinolin-7-yl)methyl (3-chloro-4-methylphenyl)carbamate]
< 500	< 10	≥ 75	10 to 50	Cc1nc2cc(COC(=O)Nc3ccc(N4CCOCC4)nc3)ccc2cc1C1CCC(=O)NC1=O (stereo not shown) [Compound 42, (3-(2,6-dioxopiperidin-3-yl)-2-methylquinolin-7-yl)methyl (6-morpholinopyridin-3-yl)carbamate]
< 500	< 10	≥ 75	< 10	Cc1ccc(NC(=O)OCc2ccc3c(C)c(C4CCC(=O)NC4=O)c(C)nc3c2)cc1Cl (stereo not shown) [Compound 44, (3-(2,6-dioxopiperidin-3-yl)-2,4-dimethylquinolin-7-yl)methyl (3-chloro-4-methylphenyl)carbamate]
> 1000	< 10	≥ 75	10 to 50	COc1ccc(NC(=O)OCc2ccc3cc(C4CCC(=O)NC4=O)c(C)nc3c2)nn1 (stereo not shown) [Compound 45, (3-(2,6-dioxopiperidin-3-yl)-2-methylquinolin-7-yl)methyl (6-methoxypyridazin-3-yl)carbamate]
500 to 1000	< 10	≥ 75	10 to 50	Cc1nc2cc(COC(=O)Nc3cccc(-c4ccccc4)c3)ccc2cc1C1CCC(=O)NC1=O (stereo not shown) [Compound 46, (3-(2,6-dioxopiperidin-3-yl)-2-methylquinolin-7-yl)methyl [1,1′-biphenyl]-3-ylcarbamate]
> 1000	< 10	≥ 75	50 to 100	Cc1ccc(NC(=O)OCc2cc3nc(C)c(C4CCC(=O)NC4=O)cc3cc2F)cc1Cl (stereo not shown) [Compound 49, (3-(2,6-dioxopiperidin-3-yl)-6-fluoro-2-methylquinolin-7-yl)methyl (3-chloro-4-methylphenyl)carbamate]
500 to 1000	< 10	≥ 75	10 to 50	Cc1ccc(NC(=O)OCc2ccc3cc(C4CCC(=O)NC4=O)c(C)nc3c2F)cc1Cl (stereo not shown) [Compound 50, (3-(2,6-dioxopiperidin-3-yl)-8-fluoro-2-methylquinolin-7-yl)methyl (3-chloro-4-methylphenyl)carbamate]
< 500	25 to 50	≥ 75	10 to 50	Cc1ccc(NC(=O)NCc2ccc3nc(C)c(N4CCC(=O)NC4=O)cc3c2)cc1Cl [Compound 51, 1-(3-chloro-4-methylphenyl)-3-((3-(2,4-dioxotetrahydropyrimidin-1(2H)-yl)-2-methylquinolin-6-yl)methyl)urea]
500 to 1000	< 10	≥ 75	10 to 50	Cc1ccc(NC(=O)OCc2ccc3cc(C4CCC(=O)NC4=O)c(C)nc3c2)c(Cl)c1Cl (stereo not shown) [Compound 54, (3-(2,6-dioxopiperidin-3-yl)-2-methylquinolin-7-yl)methyl (2,3-dichloro-4-methylphenyl)carbamate]
500 to 1000	< 10	≥ 75	10 to 50	Cc1nc2cc(COC(=O)NC3CCC(C(C)(C)C)CC3)ccc2cc1C1CCC(=O)NC1=O (stereo not shown) [Compound 55, (3-(2,6-dioxopiperidin-3-yl)-2-methylquinolin-7-yl)methyl (4-(tert-butyl)cyclohexyl)carbamate]
